Reference: US20250093329A1, “SCREENING OF COMPOUNDS” (THE UNIVERSITY OF TULSA, priority 2022, published 2025)

Experiments:
Format in all cases: cell-based
each cell line tested = experiment: ATP levels by CellTiter-Glo, all cell lines of Table 1 taken together; settings: 100 μM compound with 2-DG, Table 1 cell lines
Excerpt: A wide variety of ATP luminescing detection reagents are available commercially. So long as the reagent produces a luminescence in the presence of ATP, the reagent will be suitable for use in the present method. Suitable reagents include but are not limited to any ATP dependent luciferase such as but not limited to firefly luciferase, other modified luciferase based reagents, i.e. luciferase derivatives. According to the rapid method for determining the anti-cancer activity of a compound, a sample of living cells is distributed across a number of testing wells. Typically, 96-well plates are used; however, the number of wells is not critical to the current method. When using a 96-well plate the number of living cells will commonly be about 20,000. […] The sample wells contain a cell growth medium to promote cell health and growth and an additive to prevent bacterial contamination of the wells. One common example of the cell growth medium is DMEM with 10% FBS as described above. One example of the additive to prevent bacterial contamination is a solution of penicillin G and streptomycin referred to commonly as Pen-Strep. The Pen-Strep solution typically contains 5000 units of penicillin G and 5000 micrograms of streptomycin. Thus, the rapid determination of anti-cancer compounds can be carried out using the following method. • The desired number of cells are distributed in a 96-well plate containing 100 μL DMEM plus 10% FBS with optional Pen-Strep. • After 24 hours, cells are treated with the compound of interest or a 5% solution of dimethyl sulfoxide (DMSO) in water as a control. • The time period for exposure to the compound of interest and the DMSO control will vary depending on the luminescing detection reagent. However, when using a commercially available reagent such as resazurin (CellTiter Blue commercially available from Promega) or luciferase or a luciferase derivative (CellTiter Glo commercially available from Promega) the time period can be readily determined with reference to literature from the commercial source. Other luminescing detection agents can also be used with minimal experimentation to determine the desired compound exposure time. • Upon completion of the time period for exposure to the compound of interest or the DMSO, 10 μL of the luminescing detection reagent is added and the cells are lysed by a detergent added along with the luminescing detection reagent. • When the reagent is resazurin, as found in CellTiter-Blue the time period for exposure to the compound of interest and the DMSO will be about 24 hours. • When the reagent is luciferase or a luciferase derivative as found in CellTiter-Glo the time period for exposure to the compound of interest and the DMSO will be about 30 minutes to four hours. • The luminescing detection reagent is added over a period of time. • When using resazurin, the time period for the addition of the 10 μl volume takes place over a period of about one to four hours. • When using luciferase or a luciferase derivative, the time period is about 3 minutes to about 7 minutes, typically about 5 minutes. • During the time period of addition of the luminescing detection reagent the resulting luminescence is measured using conventional methods and devices. […] If the compound of interest deactivates the cell, then the cell produces less or no ATP. As a result, the cells in the well treated with the compound of interest will have a lower luminescence value as compared to the cells in wells treated with DMSO. • The value for the cells treated with the compound of interest is reported as a “percent of control” (POC) value. The determination of POC is calculated by dividing the averaged response from duplicate wells containing the cells as treated with the compound of interest by the average response of duplicate control wells which contain only cells and DMSO (in other words, a blank control experiment). […]

[1] = tested on: HEK293 (kidney cancer) cells; experiment: Traditional versus rapid screening (FIG. 15); settings: DMEM, CellTiter-Glo 1 hr, with or without 2DG, versus CellTiter-Blue/CellTiter-Glo 24 hr
Excerpt: FIG. 15 provides a comparison of traditional cytotoxicity testing the improved testing method described herein using HEK293 cells (kidney cancer), DMEM media, and the library sulfonamide compounds 1-30 found in FIGS. 1A-1C.
When used to identify compounds for specific patients, the following steps will be carried out: • Individualized patient cells will be acquired from a tumor biopsy and cultured/grown in patient blood serum and/or plasma. (In most instances the cells will be obtained using a needle biopsy; i.e. fine needle aspiration biopsy. Optionally, the cells may be obtained from resected tumor (i.e. excisional biopsy, which is an attempt at complete tumor removal), and/or a core biopsy; (i.e. removal of part of the tumor). Alternatively, cells may be obtained from blood draw samples, which would contain leukemia, lymphoma and myeloma cells.) • The cells (as few as 100 cells per experiment) will be screened directly in patient blood serum and/or plasma in the absence or presence of glycolysis inhibitor, 2-deoxyglucose (2DG) using a rapid (1-2 hr) screening assay (CellTiter-Glo, or “CTG”). • NOTE: while the discussion herein focuses on CTG, other assays suitable for measuring changes in ATP levels will perform equally as well. […] DMEM contains glucose, but L15 has substituted glucose with galactose. […]

NCI-H196 = experiment: Cytotoxicity testing, CellTiter-Blue assay, 24 hour (FIG. 3); settings: 100 μM, 24 hour compound incubation
Experimental: (§1) The cytotoxicity tests were carried out in the following manner. Living cells are known to convert resazurin to the fluorescent compound resorufin. Test systems which rely upon this reaction are commercially available. One such test is known at the Cell Titer Blue Cell Viability test assay from Promega. Cell cultures for each of the identified cancer lines were obtained from ATCC and maintained in Dulbecco's Modified Eagle Medium (DMEM) supplemented with 10% fetal bovine serum (FBS) and pen/strep. As known to those skilled in the art, DMEM typically includes the components identified below.
(§2) The test method provides for incubating the cell cultures at temperatures which correspond to the range of body temperatures experienced by the patient from which the cancer cells were obtained. Typically, incubation temperatures will be between the temperatures of 36.1° C. and 37.2° C. In most cases incubation will occur at 37° C. Additionally, the cell cultures are kept under an atmosphere which mimics cell conditions of the tumor within the patient's body. In most cases, the tumor microenvironment (TME) is characterized by hypoxia (low oxygen) and may also be characterized by hypercapnia (increased CO2). Hypercapnia results from decreased blood flow which limits CO2 elimination. Restricted CO2 elimination leads to increased HCO3^− conversion to CO2 in order to neutralize lactate as altered tumor cell metabolism produces more CO2 than normal. Normal tissue averages about 5% oxygen with oxygen ranges from about 3% to 7.4%. […] In the case of CO2, normocapnic is around 5% CO2, while hypercapnic can rise to 10% CO2. Therefore, to mimic the environment of the tumor the method utilizes an incubator designed to provide the optimal gaseous environment corresponding to that of the tumor. Thus, the incubator will be capable of maintaining an atmosphere having an oxygen content in the range of […] and a CO2 in the range of 1% to 10%.
(§3) After allowing for proliferation of the cells, the cells were distributed across a plurality of test wells containing from 100 μL DMEM plus 10% FBS and allowed to attach to the surface of the test wells. Typically, the time for attachment will require about 12 hours to about 18 hours. […] Following treatment of the cells with the N-benzyl sulfonamide or control, the toxicity of the compound to the cells will be determined by addition of a luminescing agent. […] Subsequently, the fluorescence of resazurin is measured by excitation at 560 nm and recording the emission at 590 nm within an instrument configured to measure fluorescence intensity. Two commercially available systems are the BioTek Cytation 5 plate reader and the Promega Glomax Multi+detection system. […]

H293 = experiment: as above; settings: 100 μM, 24 hour compound incubation
Experimental: as §1, §2, §3

Row | SMILES | effectiveness across the cell lines, with 2-DG (each cell line tested) | also measured
1 | Cc1ccc(S(=O)(=O)NCc2c[nH]c3ccccc23)cc1 [Compound 1, N-[(1H-indol-3-yl)methyl]-4-methylbenzenesulfonamide] | little effect | 
2 | O=S(=O)(NCc1c[nH]c2ccccc12)c1ccccc1 [Compound 3, N-[(1H-indol-3-yl)methyl]benzenesulfonamide] | little effect | 
3 | CC(=O)n1cc(CNS(=O)(=O)c2ccc(Cl)cc2)c2ccccc21 [Compound 4, N-[(1-acetyl-1H-indole-3-yl)methyl]-4-chlorobenzenesulfonamide] | little effect | 
4 | Cc1ccc(S(=O)(=O)NCc2ccc3ncccc3c2)cc1 [Compound 22, 4-methyl-N-(quinolin-6-ylmethyl)benzenesulfonamide] | little effect | 
5 | Cc1ccc(S(=O)(=O)NCc2c[nH]c3cccc(Br)c23)cc1 [Compound 5, N-[(4-bromo-1H-indol-3-yl)methyl]-4-methylbenzenesulfonamide] |  | sensitivity of rapid assays versus traditional methods (FIG. 15) [1]: enhanced sensitivity; effectiveness, percent reduction in cell viability (FIG. 3) (NCI-H196): effectiveness; effectiveness, percent reduction in cell viability (FIG. 3) (H293): effective
6 | COc1ccc(S(=O)(=O)NCc2c[nH]c3ccccc23)cc1 [Compound 23, N-(1H-indol-3-ylmethyl)-4-methoxybenzenesulfonamide] | little effect | 
7 | Cc1cccc2c(CNS(=O)(=O)c3ccccc3)c[nH]c12 [Compound 6, N-[(7-methyl-1H-indol-3-yl)methyl]benzenesulfonamide] |  | effectiveness, percent reduction in cell viability (FIG. 3) (H293): effective
